# Patent publication US9139557B2, “Carboxamide compounds and their use as calpain inhibitors” (Abbott GmbH & Co. KG, priority 2006, dated 2015)
# Columns and labels:
# cathepsin S = target: T1, cathepsin S (Homo sapiens, UniProt P25774); assay: Cathepsin S enzyme inhibition in vitro (kinetic fluorescence assay); type: biochemical; conditions: Ki(cathepsin S)/Ki(calpain) ratio
# T1 construct: purchased Calbiochem 219343; host or cells: E. coli
# Procedure, shortened: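 Kinetic fluorescence (ex 390/em 460 nm), room temperature: calpain-I (human erythrocyte, 20 nM) with 100 µM Suc-Leu-Tyr-AMC, imidazole/CaCl2 pH 7.3; cathepsin B (liver, 0.25 nM), 100 µM Z-Phe-Arg-AMC; L (liver, 1 nM), 2 µM Z-Phe-Arg-AMC; S (recombinant, 0.5 nM), 20 µM Z-Val-Val-Arg-AMC; cathepsins in MES/EDTA/cysteine pH 6.0. Apparent Ki via Cheng-Prusoff, 2–4 curves averaged.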
# calpain-I = target: T2, calpain-I (Homo sapiens, UniProt P07384); assay: Calpain I enzyme inhibition in vitro (kinetic fluorescence assay); type: biochemical
# T2 construct: calpain-I—isolated from human erythrocytes; purchased Calbiochem 208713; host or cells: human erythrocytes (tissue isolate)
# T2 sequence (P07384 2-714 limits assumed): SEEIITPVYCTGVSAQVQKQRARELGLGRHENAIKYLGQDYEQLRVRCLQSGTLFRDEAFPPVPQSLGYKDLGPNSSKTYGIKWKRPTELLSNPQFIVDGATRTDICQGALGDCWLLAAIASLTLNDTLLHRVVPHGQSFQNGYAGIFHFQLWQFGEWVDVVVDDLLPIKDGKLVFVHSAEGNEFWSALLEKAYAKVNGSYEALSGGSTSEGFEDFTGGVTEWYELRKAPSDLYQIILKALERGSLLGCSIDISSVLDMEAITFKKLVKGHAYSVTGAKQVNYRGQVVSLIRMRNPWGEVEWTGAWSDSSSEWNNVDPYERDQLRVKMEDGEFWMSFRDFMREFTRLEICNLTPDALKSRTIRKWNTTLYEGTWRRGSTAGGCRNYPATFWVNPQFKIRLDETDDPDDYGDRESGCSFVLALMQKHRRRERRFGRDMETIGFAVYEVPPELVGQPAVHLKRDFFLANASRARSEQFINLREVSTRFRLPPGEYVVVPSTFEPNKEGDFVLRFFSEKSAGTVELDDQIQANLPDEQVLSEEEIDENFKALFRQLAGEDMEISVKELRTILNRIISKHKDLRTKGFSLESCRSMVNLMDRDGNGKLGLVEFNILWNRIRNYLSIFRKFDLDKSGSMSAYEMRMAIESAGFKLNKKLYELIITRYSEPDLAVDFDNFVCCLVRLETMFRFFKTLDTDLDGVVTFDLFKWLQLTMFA
# T2 sequence (P04632 1-268 partner): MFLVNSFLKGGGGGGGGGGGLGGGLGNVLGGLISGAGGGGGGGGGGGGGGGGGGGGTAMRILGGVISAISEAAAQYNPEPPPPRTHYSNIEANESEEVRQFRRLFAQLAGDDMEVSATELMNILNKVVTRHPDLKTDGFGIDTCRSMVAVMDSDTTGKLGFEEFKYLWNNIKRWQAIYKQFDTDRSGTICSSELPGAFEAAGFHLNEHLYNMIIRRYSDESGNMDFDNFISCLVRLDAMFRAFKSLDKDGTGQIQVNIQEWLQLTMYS
# Procedure: Testing for blockade of the corresponding enzymic activities was carried out by means of kinetic fluorescence assays (excitation 390 nm, emission 460 nm).
# Apparent Ki values were calculated from the experimentally determined IC50 values by the Cheng-Prussoff relation assuming a reversible competitive enzyme inhibition. The Km values of the substrates used under the assay conditions indicated above were: 90 μM (Z-Phe-Arg-AMC, cathepsin B), 10 μM (Z-Gly-Pro-Arg-AMC, cathepsin K), 2 μM (Z-Phe-Arg-AMC, cathepsin L), and 30 μM (Z-Val-Val-Arg-AMC, cathepsin S).
# The indicated Ki values are averages of the inhibition constants calculated on the basis of 2 to 4 independent dose-effect plots.
# • 1. Calpain I: • 20 nM calpain-I—isolated from human erythrocytes (Calbiochem #208713), 100 μM Suc-Leu-Tyr-AMC (Bachem #1-1355) as substrate in buffer with 62 mM imidazole, 0.3 mM CaCl2, 0.10% CHAPS, 0.05% BSA, 1 mM DTT at pH 7.3 and room temperature. • 2. Cathepsin B: • 0.25 nM cathepsin B—isolated from human liver (Calbiochem #219362), 100 μM Z-Phe-Arg-AMC (Bachem #1-1160) as substrate 50 mM MES, 2 mM EDTA, 0.05% Brij 35, 2.5 mM L-cysteine, pH 6.0, room temperature. • 3. […]
# T1 sequence (P25774 115-331): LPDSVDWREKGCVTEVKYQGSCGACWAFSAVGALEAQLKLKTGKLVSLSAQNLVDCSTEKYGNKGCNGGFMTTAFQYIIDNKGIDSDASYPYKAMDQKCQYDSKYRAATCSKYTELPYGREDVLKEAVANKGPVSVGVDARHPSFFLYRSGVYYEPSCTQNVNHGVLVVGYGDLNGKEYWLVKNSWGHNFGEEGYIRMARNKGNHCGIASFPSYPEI
compound,measurement,setting,value
"Cl.NC(=O)C(=O)C(Cc1ccccc1)NC(=O)c1cccnc1-n1cnc(-c2ccc(CN3CCOCC3)cc2)c1 (centres unmarked) [Example 26, N-(3-Amino-1-benzyl-2,3-dioxopropyl)-2-{4-[4-(morpholin-4-ylmethyl)phenyl]-1H-imidazol-1-yl}nicotinamide hydrochloride]",Sel cat. S,cathepsin S,++ (++ means a Ki(cathepsin S)/Ki(calpain) ratio of ≧100)
same,Ki,calpain-I,< 0.04 µM
